Structures can show the parent of a compound that is named as a salt. Where two headings read alike, the source gives them in different places.
How the values were obtained:
[1] = test system: substance P-induced scratching behavior; experiment: Inhibitory effect on substance P-induced scratching behavior in mice (MicroAct automatic detection); type: in vivo, mouse; conditions: for Number of scratching behavior (means ± standard error): counted for 15 minutes
From the text: Substance P-induced scratching behavior in mice which is an intractable pruritus model was induced by the method described in a known document (Togashi et al., European Journal of Pharmacology, 2002, Vol. 435, p. 259 and the like). Further, evaluation of the scratching behavior was objectively carried out by automatic detection using MicroAct (NeuroScience, Inc.) based on the method described in a known document (Hashimoto et al., Allergology International, 2004, Vol. 53, p. 349).
More particularly, at least five days before the evaluation of drug effect, neodymium magnets (diameter: 1 mm, length: 3 mm) coated with Parafilm were subcutaneously inserted into the insteps of both hind limbs of 5 to 7 week-old male ICR mouse (Japan SLC, Inc.) under isoflurane anesthesia. One or two days before the day of the evaluation of drug effect, the hair of the rostral part of the back of the mouse was shaved with a hair clipper under isoflurane anesthesia. At least one hour before the start of the measurement of the number of scratching behavior, each mouse (6 to 8 weeks old) was individually placed in a chamber for measurement (diameter: 11 cm, height: 18 cm) for acclimation. After the acclimation, substance P (5 mmol/L) or phosphate-buffered saline (hereinafter referred to as PBS) as a solvent thereof was intradermally administered (0.05 mL/site) into the rostral part of the back, and the measurement of the number of scratching behavior was started immediately after the administration. The number of scratching behavior was recorded by amplifying electric current induced by the movement of the magnets inserted in the hind limbs in a round coil surrounding the chamber for measurement. The measurement was carried out under unattended environment, and the evaluation of the drug effect was carried out by using the number of scratching behavior occurred for 15 minutes after the start of the measurement as an index.
A test compound or a solvent thereof was administered in an amount of 10 mL/kg 30 to 60 minutes before the start of the measurement of the number of scratching behavior. Varenicline tartrate (Tocris Bioscience) was dissolved in PBS and intraperitoneally administered in a dose of 1, 3 or 10 mg/kg 60 minutes before the start of the measurement of the number of scratching behavior. N-(1-azabicyclo[2.2.2]oct-3(R)-yl)-4-chlorobenzamide hydrochloride (PNU-282987) hydrate (Sigma-Aldrich) was dissolved in PBS and intraperitoneally administered in a dose of 0.3 or 1 mg/kg 45 minutes before the start of the measurement of the number of scratching behavior. The compound of Reference Example 1 was dissolved in PBS and intraperitoneally administered in a dose of 0.1 or 0.3 mg/kg 30 minutes before the start of the measurement of the number of scratching behavior. The compound of Reference Example 2 was dissolved in PBS and intraperitoneally administered in a dose of 1, 3, or 10 mg/kg 45 minutes before the start of the measurement of the number of scratching behavior. The compound of Reference Example 3 was dissolved in distilled water and orally administered in a dose of 1, 3, or 10 mg/kg 30 minutes before the start of the measurement of the number of scratching behavior. The compound of Reference Example 4 was dissolved in PBS and intraperitoneally administered in a dose of 1, 3, or 10 mg/kg 45 minutes before the start of the measurement of the number of scratching behavior. The compound of Reference Example 5 was dissolved in PBS and intraperitoneally administered in a dose of 1, 3, or 10 mg/kg 30 minutes before the start of the measurement of the number of scratching behavior. The compound of Reference Example 6 was dissolved in PBS and intraperitoneally administered in a dose of 1, 3, or 10 mg/kg, 30 minutes before the start of the measurement of the number of scratching behavior. […]

[2] = test system: substance P-induced scratching behavior; conditions: literature; cited from earlier work
[3] = Mus musculus, ip, read-out: Inhibition rate
[4] = i.p., 0.3 mg/kg, substance P 250 nmol/site
[5] = i.p., 1 mg/kg, substance P 250 nmol/site
[6] = Mus musculus, ip, 0.1 mg/kg, substance P 250 nmol/site, read-out: Inhibition rate
[7] = Mus musculus, ip, 0.3 mg/kg, substance P 250 nmol/site, read-out: Inhibition rate
[8] = i.p., 0.1 mg/kg, substance P 250 nmol/site
[9] = Mus musculus, ip, 1 mg/kg, substance P 250 nmol/site, read-out: Inhibition rate
[10] = Mus musculus, ip, 3 mg/kg, substance P 250 nmol/site, read-out: Inhibition rate
[11] = Mus musculus, ip, 10 mg/kg, substance P 250 nmol/site, read-out: Inhibition rate
[12] = i.p., 3 mg/kg, substance P 250 nmol/site
[13] = i.p., 10 mg/kg, substance P 250 nmol/site
[14] = p.o., 10 mg/kg, substance P 250 nmol/site
[15] = Mus musculus, po, read-out: Inhibition rate

SMILES: Cl.O=C(N[C@H]1CN2CCC1CC2)c1ccc(Cl)cc1 [PNU-282987 hydrate, N-(1-azabicyclo[2.2.2]oct-3(R)-yl)-4-chlorobenzamide hydrochloride, reference compound]
- inhibition at 0.3 mg/kg [1, 3]: 42%
- inhibition at 1 mg/kg [1, 3]: 72%
- Number of scratching behavior (means ± standard error) [1, 4]: 81 ± 9
- Number of scratching behavior (means ± standard error) [1, 5]: 48 ± 8

SMILES: Cl.Clc1ccc(OC[C@H]2CCN2)cn1 [Reference Example 1, (R)-2-Chloro-5-(2-azetidinylmethoxy)pyridine hydrochloride]
- inhibition at 0.1 mg/kg [1, 6]: 107%
- inhibition at 0.3 mg/kg [1, 7]: 121%
- Number of scratching behavior (means ± standard error) [1, 8]: 21 ± 8
- Number of scratching behavior (means ± standard error) [1, 4]: 6 ± 2

SMILES: O=C(N[C@@H]1C2CCN(CC2)[C@H]1Cc1cccnc1)c1cc2ccccc2o1 [Reference Example 2, N-(2(S)-(Pyridin-3-ylmethyl)-1-azabicyclo[2.2.2]oct-3(R)-yl)-1-benzofuran-2-carboxamide]
- inhibition at 1 mg/kg [1, 9]: 71%
- inhibition at 3 mg/kg [1, 10]: 38%
- inhibition at 10 mg/kg [1, 11]: 62%
- Number of scratching behavior (means ± standard error) [1, 5]: 67 ± 10
- Number of scratching behavior (means ± standard error) [1, 12]: 97 ± 14
- Number of scratching behavior (means ± standard error) [1, 13]: 75 ± 8

SMILES: Cl.O=C(N[C@H]1CN2CCC1CC2)c1cc2cccc(Cl)c2s1 [Reference Example 3, (R)-7-Chloro-N-(quinuclidin-3-yl)benzo[b]thiophene-2-carboxamide hydrochloride]
- inhibition at 1 mg/kg ([1]; Mus musculus, po, 1 mg/kg, substance P 250 nmol/site, read-out: Inhibition rate): 32%
- inhibition at 3 mg/kg ([1]; Mus musculus, po, 3 mg/kg, substance P 250 nmol/site, read-out: Inhibition rate): 51%
- inhibition at 10 mg/kg ([1]; Mus musculus, po, 10 mg/kg, substance P 250 nmol/site, read-out: Inhibition rate): 79%
- Number of scratching behavior (means ± standard error) ([1]; p.o., 1 mg/kg, substance P 250 nmol/site): 71 ± 14
- Number of scratching behavior (means ± standard error) ([1]; p.o., 3 mg/kg, substance P 250 nmol/site): 57 ± 13
- Number of scratching behavior (means ± standard error) [1, 14]: 36 ± 8

SMILES: Cl.O=C(Oc1ccc(Br)cc1)N1CCN2CCC1CC2 [Reference Example 4, 1,4-Diazabicyclo[3.2.2]nonane-4-carboxylic acid 4-bromophenyl ester hydrochloride]
- inhibition at 1 mg/kg [1, 3]: 32%
- inhibition at 3 mg/kg [1, 3]: 63%
- inhibition at 10 mg/kg [1, 3]: 80%
- Number of scratching behavior (means ± standard error) [1, 5]: 89 ± 12
- Number of scratching behavior (means ± standard error) [1, 12]: 59 ± 14
- Number of scratching behavior (means ± standard error) [1, 13]: 42 ± 6

SMILES: Cc1ccc2oc(N3CCN4CCC3CC4)nc2n1.Cl [Reference Example 5, 2-(1,4-Diazabicyclo[3.2.2]non-4-yl)-5-methyloxazolo[4,5-b]pyridine hydrochloride]
- inhibition at 1 mg/kg [1, 9]: 25%
- inhibition at 3 mg/kg [1, 10]: 46%
- inhibition at 10 mg/kg [1, 11]: 59%
- Number of scratching behavior (means ± standard error) [1, 5]: 82 ± 6
- Number of scratching behavior (means ± standard error) [1, 12]: 62 ± 11
- Number of scratching behavior (means ± standard error) [1, 13]: 50 ± 12

SMILES: Cl.O=C(CCCCN1CCOCC1)Nc1ccc(-c2cccnc2)cc1 [Reference Example 6, 5-(4-Morpholinyl)-N-(4-(3-pyridyl)phenyl)pentanamide hydrochloride]
- inhibition at 1 mg/kg [1, 9]: 32%
- inhibition at 3 mg/kg [1, 10]: 52%
- inhibition at 10 mg/kg [1, 11]: 104%
- Number of scratching behavior (means ± standard error) [1, 5]: 94 ± 15
- Number of scratching behavior (means ± standard error) [1, 12]: 78 ± 10
- Number of scratching behavior (means ± standard error) [1, 13]: 36 ± 5

SMILES: CN1C[C@@H]2CN(c3ccc(-c4ccccc4)nn3)C[C@@H]2C1 [Reference Example 7, cis-2-methyl-5-(6-phenylpyridazin-3-yl)perhydropyrrolo[3,4-c]pyrrole fumarate]
- inhibition at 0.3 mg/kg [1, 3]: 25%
- inhibition at 1 mg/kg [1, 3]: 79%
- inhibition at 3 mg/kg [1, 3]: 66%
- Number of scratching behavior (means ± standard error) [1, 4]: 101 ± 20
- Number of scratching behavior (means ± standard error) [1, 5]: 37 ± 8
- Number of scratching behavior (means ± standard error) [1, 12]: 52 ± 9

SMILES: C[C@H](OC(=O)N[C@@H]1CN2CCC1CC2)c1ccccc1F [Reference Example 8, (S)-1-(2-fluorophenyl)ethyl(S)-quinuclidin-3-ylcarbamate]
- inhibition at 10 mg/kg [1, 15]: 41%
- inhibition at 30 mg/kg [1, 15]: 49%
- Number of scratching behavior (means ± standard error) [1, 14]: 92 ± 17
- Number of scratching behavior (means ± standard error) ([1]; p.o., 30 mg/kg, substance P 250 nmol/site): 83 ± 19

SMILES: O=C(N[C@H]1CN2CCC1CC2)c1cc2ccoc2cn1 [Reference Example 9, N-(1-Azabicyclo[2.2.2]oct-3(R)-yl)furo[2,3-c]pyridine-5-carboxamide dihydrochloride]
- inhibition at 0.1 mg/kg [1, 6]: 10%
- inhibition at 0.3 mg/kg [1, 7]: 43%
- inhibition at 1 mg/kg [1, 9]: 70%
- Number of scratching behavior (means ± standard error) [1, 8]: 109 ± 21
- Number of scratching behavior (means ± standard error) [1, 4]: 76 ± 18
- Number of scratching behavior (means ± standard error) [1, 5]: 50 ± 10

SMILES: Cl.O=C(N[C@H]1CN2CCC1CC2)c1ccc2c(c1)OCCO2 [Reference Example 10, N-(1-Azabicyclo[2.2.2]oct-3(R)-yl)-2,3-dihydro-1,4-benzodioxin-6-carboxamide hydrochloride]
- inhibition at 0.1 mg/kg [1, 3]: 3%
- inhibition at 0.3 mg/kg [1, 3]: 17%
- inhibition at 1 mg/kg [1, 3]: 58%
- Number of scratching behavior (means ± standard error) [1, 8]: 131 ± 18
- Number of scratching behavior (means ± standard error) [1, 4]: 115 ± 19
- Number of scratching behavior (means ± standard error) [1, 5]: 69 ± 10

SMILES: O=C(O)Cc1ccccc1Nc1c(Cl)cccc1Cl [diclofenac]
- Inhibition of substance P-induced scratching behavior in mice (in words) [2]: not inhibited

SMILES: COc1ccc2c(c1)c(CC(=O)O)c(C)n2C(=O)c1ccc(Cl)cc1 [indomethacin]
- Inhibition of substance P-induced scratching behavior in mice (in words) [2]: not inhibited

SMILES: C=CC[C@@H]1/C=C(\C)C[C@H](C)C[C@H](OC)[C@H]2O[C@@](O)(C(=O)C(=O)N3CCCC[C@H]3C(=O)O[C@H](/C(C)=C/[C@@H]3CC[C@@H](O)[C@H](OC)C3)[C@H](C)[C@@H](O)CC1=O)[C@H](C)C[C@@H]2OC [tacrolimus]
- Inhibition of substance P-induced scratching behavior in mice (in words) [2]: not inhibited

— patent publication US20140128606A1, “ANTIPRURITIC AGENT” (Toray Industries, Inc., priority 2011, published 2014)
